Source: patent publication EP0330017A2, “Use of thiazoles for increasing animal performance” (BOEHRINGER INGELHEIM VETMEDICA GMBH, priority 1988, dated 1989)

Key:
[1] = Performance promotion in lambs, 33-day feeding trial (weight gain, feed consumption); format: in vivo, Lämmern; settings: 33-day trial
Excerpt: (§1) Die leistungsfördernde Wirkung der vorstehend erwähnten Thiazole wurde beispielsweise an der Verbindung N-[2-(4-Carboxymethoxyphenyl)-1-methylethenyl]-2-(2-trifluormethyl-thiazol-4-yl)morpholin wie folgt geprüft:
1.) 2 Gruppen von 7 Lämmern, wobei jedes Tier einzeln gehalten wurde, erhielten identisches Futter und Wasser ad libitum. Die eine Gruppe erhielt zusätzlich 8 ppm der vorstehend erwähnten Verbindung. Während der 33-tägigen Versuchsperiode wurden Gewichtszunahme und Futterverbrauch gegenüber der Kontrollgruppe bestimmt.

[2] = Performance promotion in pigs, 33-day feeding trial (weight gain, feed consumption, carcass quality); format: in vivo, Schweinen; settings: 8 ppm test compound in feed, 33-day trial, 10 pigs
Excerpt: as §1
3.) 2 Gruppen von 10 Schweinen, wobei jedes Tier einzeln gefüttert wurde, erhielten identisches Futter und Wasser ad libitum. Die eine Gruppe erhielt zusätzlich 8 ppm der vorstehend erwähnten Verbindung. Während der 33-tägigen Versuchsperiode wurden Gewichtszunahme, Futterverbrauch der Schlachtkörperqualität gegenüber der Kontrollgruppe bestimmt.

[3] = Performance promotion in lambs, 42-day feeding trial (weight gain, carcass quality); format: in vivo, Lämmern; settings: 42-day trial
Excerpt: as §1
2.) 2 Gruppen von 12 Lämmern erhielten identisches Futter und Wasser ad libitum. Die eine Gruppe erhielt zusätzlich 8 ppm der vorstehend erwähnten Verbindung. Während der 42-tä-gigen Versuchsperiode wurden Gewichtszunahme und Parameter der Schlachtkörperqualität gegenüber der Kontrolle bestimmt.

[4] = 8 ppm test compound in feed, 7 lambs
[5] = 8 ppm test compound in feed, 12 lambs

## CC(Cc1ccc(OCC(=O)O)cc1)N1CCOC(c2csc(C(F)(F)F)n2)C1 (centres unmarked) [Testverbindung]
[1]; [4]
  Endgewicht: 43,9 kg
  Futteraufnahme: 1598,0 g/Tag
  Futterverwertung (kg Zunahme/kg Futter): 0,161 kg Zunahme/kg Futter
  Gewichtszunahme: 258,0 g/Tag
[1]; 8 ppm vs 0 ppm control, lambs
  Futteraufnahme, Abweichung zur Kontrolle: +4,4%
  Futterverwertung (kg Zunahme/kg Futter), Abweichung zur Kontrolle: +50,5%
  Gewichtszunahme, Abweichung zur Kontrolle: +57,3%
[2]
  Ausschlachtung: 77,2%
  Endgewicht: 97,6 kg
  Futterverwertung (kg Futter/kg Zunahme): 3,17 kg Futter/kg Zunahme
  Gewichte verschiedener Teilstücke: Rippe: 7,25 kg
  Gewichte verschiedener Teilstücke: Schinken: 7,46 kg
  Gewichte verschiedener Teilstücke: Schulter: 9,48 kg
  Gewichtszunahme: 754,0 g/Tag
  Rückenmuskelfläche: 32,3 cm²
[3]; [5]
  Endgewicht: 46,6 kg
  Gewicht des musculus longissimus dorsi: 324,0 g
  Gewichtszunahme: 320,0 g/Tag
  Rückenfettdicke: 1,78 mm
  Schlachtkörperzusammensetzung: Fett: 16,1%
  Schlachtkörperzusammensetzung: Fleisch: 69,1%
  Schlachtkörperzusammensetzung: Knochen: 14,8%
[3]; 8 ppm vs 0 ppm control, lambs
  Gewicht des musculus longissimus dorsi, Abweichung zur Kontrolle: +6,9%
  Schlachtkörperzusammensetzung: Fett, Abweichung zur Kontrolle: -6,9%
  Schlachtkörperzusammensetzung: Fleisch, Abweichung zur Kontrolle: +1,2%
  Schlachtkörperzusammensetzung: Knochen, Abweichung zur Kontrolle: +2,8%
